pIC50: −log10 of the molar value. Like-named read-outs stand apart in the source and are kept apart here.
What was measured:
[1] = test system: Aβ40 in conditioned medium of cells stably expressing Amyloid Precursor Protein (APP); experiment: In vitro BACE cell-based assay (Aβ40 in conditioned medium, sandwich ELISA); conditions: Homo sapiens, read-out: HEK cell assay
Method in brief: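 Quantification relied on pAb40/6E10 sandwich ELISA with Europium fluorescence counts, and IC50 was fitted versus concentration.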

[2] = target: Beta Secretase enzyme (BACE) (Homo sapiens, UniProt P56817); experiment: In vitro enzymatic BACE FRET (fluorescence resonance energy transfer) assay; format: biochemical; conditions: average IC50, enzyme assay; read-out: BACE 1 FRET assay
Method in brief: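 A peptide bearing a fluorophore and quencher across the cleavage site serves as substrate at 50 nM. Reactions proceed one hour in acidic acetate buffer (0.05 M, pH 4.2) containing 10% DMSO final and 100 uM genapol, then are terminated with Tris and read fluorimetrically.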

[3] = HEK293, average IC50, HEK cells

Sequence of Beta Secretase enzyme (BACE) (P56817 46-501, species assumed): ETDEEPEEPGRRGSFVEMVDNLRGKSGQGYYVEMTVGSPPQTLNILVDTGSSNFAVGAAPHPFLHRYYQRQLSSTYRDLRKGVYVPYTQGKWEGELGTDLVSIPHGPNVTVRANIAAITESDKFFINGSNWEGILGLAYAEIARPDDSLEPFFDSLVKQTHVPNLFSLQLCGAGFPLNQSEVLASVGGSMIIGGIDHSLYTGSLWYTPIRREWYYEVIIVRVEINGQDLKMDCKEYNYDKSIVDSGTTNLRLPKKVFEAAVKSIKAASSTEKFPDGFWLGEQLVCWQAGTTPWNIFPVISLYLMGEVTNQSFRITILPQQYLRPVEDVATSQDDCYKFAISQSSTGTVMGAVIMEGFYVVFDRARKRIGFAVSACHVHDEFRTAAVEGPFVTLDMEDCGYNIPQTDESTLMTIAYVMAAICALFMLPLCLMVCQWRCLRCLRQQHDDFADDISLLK

Row | SMILES | pIC50 ([1]; HEK293, average IC50) | pIC50 [2] | pIC50 [1, 3]
1 | CC(C)(C#N)COc1cc(F)c2c(c1)[C@]1(COC(N)=N1)c1cc(-c3ccc(F)nc3)ccc1O2 [Example 263, 3-(((4S)-2-amino-4′-fluoro-7′-(6-fluoro-3-pyridinyl)spiro[1,3-oxazole-4,9′-xanthen]-2′-yl)oxy)-2,2-dimethylpropanenitrile] | 7.88 | 8.64 | –
2 | NC1=N[C@@]2(CO1)c1cc(-c3cccnc3)c(F)cc1Oc1c(F)cc(C3CCOCC3)cc12 [Example 864, (4S)-3′,5′-difluoro-2′-(3-pyridinyl)-7′-(tetrahydro-2H-pyran-4-yl)spiro[1,3-oxazole-4,9′-xanthen]-2-amine] | – | 8.96 | 7.52
3 | N#Cc1cccc(-c2ccc3c(c2)[C@@]2(CSC(N)=N2)c2cc(C4CCOCC4)cnc2O3)c1F [Example 790, 3-((5S)-2′-amino-3-(tetrahydro-2H-pyran-4-yl)spiro[chromeno[2,3-b]pyridine-5,4′-[1,3]thiazol]-7-yl)-2-fluorobenzonitrile] | 7.01 | 7.84 | –
4 | NC1=N[C@@]2(CO1)c1cc(-c3cccc(Cl)c3)ccc1Oc1cnc(C3CCOCC3)cc12 [Example 241, (5S)-7-(3-chlorophenyl)-3-(tetrahydro-2H-pyran-4-yl)spiro[chromeno[2,3-c]pyridine-5,4′-[1,3]oxazol]-2′-amine] | 7.20 | 8.47 | –
5 | Cc1ccnc(F)c1-c1ccc2c(c1)[C@@]1(COC(N)=N1)c1cc(-c3ccnc(F)c3)ncc1O2 [Example 237, (5S)-7-(2-fluoro-4-methyl-3-pyridinyl)-3-(2-fluoro-4-pyridinyl)spiro[chromeno[2,3-c]pyridine-5,4′-[1,3]oxazol]-2′-amine] | 7.65 | 8.80 | –
6 | NC1=N[C@@]2(CO1)c1cc(-c3cccnc3F)ccc1Oc1c2cc([C@@H]2CCCCO2)nc1F [Example 659, (5S)-1-fluoro-7-(2-fluoro-3-pyridinyl)-3-((2S)-tetrahydro-2H-pyran-2-yl)spiro[chromeno[2,3-c]pyridine-5,4′-[1,3]oxazol]-2′-amine] | – | 8.85 | 7.72
7 | NC1=N[C@@]2(CO1)c1cc(OCCCc3ccccc3)ccc1Oc1ncc(-c3cccnc3)cc12 [Example 981, (5S)-7-(3-phenylpropoxy)-3-(3-pyridinyl)spiro[chromeno[2,3-b]pyridine-5,4′-[1,3]oxazol]-2′-amine] | 6.58 | 7.65 | –
8 | NC1=N[C@@]2(CS1)c1cc(-c3cccnc3)ccc1Oc1c(F)cc(C3=CCOCC3)cc12 [Example 796, (4S)-2′-(3,6-dihydro-2H-pyran-4-yl)-4′-fluoro-7′-(3-pyridinyl)spiro[1,3-thiazole-4,9′-xanthen]-2-amine] | 8.10 | 9.30 | –
9 | NC1=N[C@@]2(CS1)c1cc(-c3cccnc3F)ccc1Oc1cnc(N3CCC(F)(F)C3)cc12 (single isomer, unassigned) [Example 704] | – | 9.52 | 7.92
10 | NC1=N[C@]2(CO1)c1cc(-c3cccnc3F)ccc1Oc1nc(F)c(I)cc12 [Example 899, (5R)-2-fluoro-7-(2-fluoro-3-pyridinyl)-3-iodospiro[chromeno[2,3-b]pyridine-5,4′-[1,3]oxazol]-2′-amine] | – | 4.40 | ≤ 5.00
11 | NC1=N[C@@]2(CS1)c1cc(-c3cnccc3F)ccc1Oc1ncc(-c3cccnc3F)cc12 [Example 788, (5S)-3-(2-fluoro-3-pyridinyl)-7-(4-fluoro-3-pyridinyl)spiro[chromeno[2,3-b]pyridine-5,4′-[1,3]thiazol]-2′-amine] | 7.23 | 8.30 | –
12 | NC1=N[C@@]2(CO1)c1cc(-c3cncc(F)c3)ccc1Oc1c(F)cc(C3=CCOC3)cc12 [Example 288, (4S)-2′-(2,5-dihydro-3-furanyl)-4′-fluoro-7′-(5-fluoro-3-pyridinyl)spiro[1,3-oxazole-4,9′-xanthen]-2-amine] | 8.39 | 9.52 | –
13 | Cn1cc(-c2ccc3c(c2)[C@@]2(COC(N)=N2)c2cc(OCC4(C)COC4)c(F)cc2O3)cn1 [Example 332, (4S)-3′-fluoro-2′-((3-methyl-3-oxetanyl)methoxy)-7′-(1-methyl-1H-pyrazol-4-yl)spiro[1,3-oxazole-4,9′-xanthen]-2-amine] | 6.31 | 6.26 | –
14 | NC1=N[C@@]2(CO1)c1cc(-c3c(F)ccnc3F)ccc1Oc1c(F)cc(-c3ncccn3)cc12 [Example 858, (4S)-7′-(2,4-difluoro-3-pyridinyl)-4′-fluoro-2′-(2-pyrimidinyl)spiro[1,3-oxazole-4,9′-xanthen]-2-amine] | – | 9.30 | 7.74
15 | NC1=N[C@@]2(CO1)c1cc(-c3cccc(C(F)(F)F)c3)ccc1Oc1cnc(C3=CCOCC3)cc12 [Example 145, (5S)-3-(3,6-dihydro-2H-pyran-4-yl)-7-(3-(trifluoromethyl)phenyl)spiro[chromeno[2,3-c]pyridine-5,4′-[1,3]oxazol]-2′-amine] | 7.09 | 8.66 | –
16 | Cn1cc(-c2cc3c(cn2)Oc2ccc(-c4ccccc4)cc2[C@@]32COC(N)=N2)cn1 [Example 367, (5S)-3-(1-methyl-1H-pyrazol-4-yl)-7-phenylspiro[chromeno[2,3-c]pyridine-5,4′-[1,3]oxazol]-2′-amine] | 7.13 | 7.88 | –
17 | Cc1cncc(-c2ccc3c(c2)[C@@]2(COC(N)=N2)c2cc(-c4ccnc(C#N)c4)ncc2O3)c1 [Example 141, 4-((5S)-2′-amino-7-(5-methyl-3-pyridinyl)spiro[chromeno[2,3-c]pyridine-5,4′-[1,3]oxazol]-3-yl)-2-pyridinecarbonitrile] | 6.95 | 7.76 | –
18 | COc1nc(Cl)cc2c1Oc1ccc(Br)cc1[C@@]21COC(N)=N1 [Example 710, (S)-7-bromo-3-chloro-1-methoxy-5′H-spiro[chromeno[2,3-c]pyridine-5,4′-oxazol]-2′-amine] | ≤ 5.00 | 5.16 | –
19 | Cn1cc(-c2cncc(-c3ccc4c(c3)[C@@]3(COC(N)=N3)c3cc(-c5cnn(C)c5)ncc3O4)c2)cn1 [Example 233, (5S)-3-(1-methyl-1H-pyrazol-4-yl)-7-(5-(1-methyl-1H-pyrazol-4-yl)-3-pyridinyl)spiro[chromeno[2,3-c]pyridine-5,4′-[1,3]oxazol]-2′-amine] | 7.04 | 7.55 | –

Continued, values first:

Row | pIC50 ([1]; HEK293, average IC50) | pIC50 [2] | pIC50 [1, 3] | SMILES
20 | – | 9.52 | 8.40 | CC#Cc1cnc(F)c(-c2ccc3c(c2)[C@@]2(COC(N)=N2)c2cc(C4=CCOCC4)cnc2O3)c1 [Example 953, (5S)-3-(3,6-dihydro-2H-pyran-4-yl)-7-(2-fluoro-5-(1-propyn-1-yl)-3-pyridinyl)spiro[chromeno[2,3-b]pyridine-5,4′-[1,3]oxazol]-2′-amine]
21 | – | 7.63 | 6.11 | NC1=N[C@@]2(CS1)c1cc(-c3cncc(F)c3)ccc1Oc1ncc(Br)cc12 [Example 965, (5S)-3-bromo-7-(5-fluoro-3-pyridinyl)spiro[chromeno[2,3-b]pyridine-5,4′-[1,3]thiazol]-2′-amine]
22 | – | 8.42 | 6.67 | CC(C)(F)C#Cc1cnc2c(c1)[C@]1(COC(N)=N1)c1cc(-c3cncnc3)c(F)cc1O2 [Example 717, (S)-8-fluoro-3-(3-fluoro-3-methylbut-1-ynyl)-7-(pyrimidin-5-yl)-5′H-spiro[chromeno[2,3-b]pyridine-5,4′-oxazol]-2′-amine]
23 | 6.89 | 8.39 | – | CC1(C#Cc2cnc3c(c2)[C@]2(CSC(N)=N2)c2cc(-c4cnccc4F)ccc2O3)COC1 [Example 727, (5S)-7-(4-fluoro-3-pyridinyl)-3-((3-methyl-3-oxetanyl)ethynyl)spiro[chromeno[2,3-b]pyridine-5,4′-[1,3]thiazol]-2′-amine]
24 | 7.28 | 8.05 | – | COc1cncc(-c2ccc3c(c2)[C@@]2(COC(N)=N2)c2cc(OCC4(C)COC4)c(F)cc2O3)c1 [Example 329, (4S)-3′-fluoro-7′-(5-methoxy-3-pyridinyl)-2′-((3-methyl-3-oxetanyl)methoxy)spiro[1,3-oxazole-4,9′-xanthen]-2-amine]
25 | 6.47 | 7.04 | – | CC1(C)C=C(c2cnc3c(c2)[C@@]2(COC(N)=N2)c2c(ccc(-c4cncnc4)c2F)O3)CCO1 [Example 354, (5S)-3-(6,6-dimethyl-3,6-dihydro-2H-pyran-4-yl)-6-fluoro-7-(5-pyrimidinyl)spiro[chromeno[2,3-b]pyridine-5,4′-[1,3]oxazol]-2′-amine]
26 | 8.28 | 9.15 | – | COC(C)(C)COc1cnc2c(c1)[C@]1(COC(N)=N1)c1cc(-c3cc(Cl)ccc3F)ccc1O2 [Example 319, (5S)-7-(5-chloro-2-fluorophenyl)-3-(2-methoxy-2-methylpropoxy)spiro[chromeno[2,3-b]pyridine-5,4′-[1,3]oxazol]-2′-amine]
27 | 6.92 | 8.46 | – | Cc1ccn(-c2cnc3c(c2)[C@]2(COC(N)=N2)c2cc(-c4cccnc4F)ccc2O3)n1 [Example 1021, (5S)-7-(2-fluoro-3-pyridinyl)-3-(3-methyl-1H-pyrazol-1-yl)spiro[chromeno[2,3-b]pyridine-5,4′-[1,3]oxazol]-2′-amine]
28 | 6.34 | 8.26 | – | CC1(C#Cc2cncc(-c3ccc4c(c3)[C@@]3(COC(N)=N3)c3cc(-c5ccnc(F)c5)ncc3O4)c2)COC1 [Example 812, (5S)-3-(2-fluoro-4-pyridinyl)-7-(5-((3-methyl-3-oxetanyl)ethynyl)-3-pyridinyl)spiro[chromeno[2,3-c]pyridine-5,4′-[1,3]oxazol]-2′-amine]
29 | 6.90 | 7.51 | – | N#Cc1cccc(COc2ccc3c(c2)[C@@]2(COC(N)=N2)c2cc(-c4cccnc4)cnc2O3)c1 [Example 984, 3-((((5S)-2′-amino-3-(3-pyridinyl)spiro[chromeno[2,3-b]pyridine-5,4′-[1,3]oxazol]-7-yl)oxy)methyl)benzonitrile]
